Measured values: patent publication US20260174788A1 (priority 2023, published 2026)

Legend:
[1] = tested on: HR NMIBC (CIS with or without papillary disease) unresponsive to prior intravesical BCG therapy; design: species or system human; settings: in vivo
[2] = Pharmacokinetics of gemcitabine and dFdU in urine and plasma after TAR-200; settings: for Mean cumulative excreted amount in urine as percentage of the administered dose: 0-168 hours after TAR-200; for Tmax: human, urine, other: intravesical, 225 mg gemcitabine

## Nc1ccn([C@@H]2O[C@H](CO)[C@@H](O)C2(F)F)c(=O)n1 [gemcitabine]
[1]
  12-month CR rate, all TAR-200 treated patients: 64%
  Responders who achieved CR at the 12 weeks disease assessment: 47 out of 48
  effectiveness versus existing standard of care: nearly two times as effective
[2]
  Mean cumulative excreted amount in urine as percentage of the administered dose: 36.2-53.8%
  Tmax: 48 to 96 h
[2]; after TAR-200 (225 mg gemcitabine)
  Mean gemcitabine concentration in urine versus tumoricidal concentration: > 3 µg/mL

## O=c1ccn([C@@H]2O[C@H](CO)[C@@H](O)C2(F)F)c(=O)[nH]1 [dFdU, 2′,2′ difluorodeoxyuridine]
[2]
  Mean cumulative excreted amount in urine as percentage of the administered dose: 11.1-23.3%
  Tmax: 72 to 144 h
